According to ChEMBL document CHEMBL4196094, “Structure-based design of bacterial transglycosylase inhibitors incorporating biphenyl, amine linker and 2-alkoxy-3-phosphorylpropanoate moieties” (Eur J Med Chem, 2018):
Converted amounts (≈) assume the structure as drawn.

Tests used:
[1] = target: T1, Penicillin-binding protein 1B (Acinetobacter baumannii) (UniProt G1C7A4); test: Inhibition of Acinetobacter baumannii PBP1b transglycosylase activity at 500 uM using NBD-lipid 2 as substrate after 2 hrs by muramidase enzyme coupled HPLC analysis relative to control
T1 sequence (whole entry): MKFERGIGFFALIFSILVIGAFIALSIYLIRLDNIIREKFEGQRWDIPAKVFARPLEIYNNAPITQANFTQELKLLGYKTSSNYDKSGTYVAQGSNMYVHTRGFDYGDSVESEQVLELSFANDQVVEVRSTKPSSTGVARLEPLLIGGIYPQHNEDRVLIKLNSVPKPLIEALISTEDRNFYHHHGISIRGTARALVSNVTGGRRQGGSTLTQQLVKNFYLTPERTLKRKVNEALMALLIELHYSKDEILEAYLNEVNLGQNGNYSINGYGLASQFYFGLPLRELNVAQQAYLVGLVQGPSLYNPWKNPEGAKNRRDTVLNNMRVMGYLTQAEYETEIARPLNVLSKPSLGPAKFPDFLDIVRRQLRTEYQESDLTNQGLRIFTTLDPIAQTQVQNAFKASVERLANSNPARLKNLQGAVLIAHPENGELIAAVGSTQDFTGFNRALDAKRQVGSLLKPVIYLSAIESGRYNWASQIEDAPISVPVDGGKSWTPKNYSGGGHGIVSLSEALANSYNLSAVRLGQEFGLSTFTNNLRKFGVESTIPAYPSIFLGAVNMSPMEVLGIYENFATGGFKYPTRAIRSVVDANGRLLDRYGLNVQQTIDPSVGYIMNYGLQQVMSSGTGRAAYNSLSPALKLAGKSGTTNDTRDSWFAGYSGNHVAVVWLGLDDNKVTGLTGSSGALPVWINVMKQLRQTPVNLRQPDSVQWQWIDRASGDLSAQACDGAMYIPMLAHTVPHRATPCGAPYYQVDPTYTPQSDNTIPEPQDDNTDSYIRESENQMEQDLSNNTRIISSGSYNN

[2] = target: T1, Penicillin-binding protein 1B (Acinetobacter baumannii); test: Inhibition of Acinetobacter baumannii PBP1b transglycosylase activity at 200 uM using NBD-lipid 2 as substrate after 2 hrs by muramidase enzyme coupled HPLC analysis relative to control
[3] = target: T2, Penicillin-binding protein 1B (Acinetobacter baumannii, UniProt G1C7A4); test: Inhibition of Acinetobacter baumannii PBP1b transglycosylase activity using NBD-lipid 2 as substrate after 2 hrs by muramidase enzyme coupled HPLC analysis
T2 sequence (G1C7A4 whole entry): T1 sequence (whole entry)

Staphylococcus aureus = test: Antibacterial activity against Staphylococcus aureus after 16 to 18 hrs; type: functional
[4] = target: T1, Penicillin-binding protein 1B (Acinetobacter baumannii); test: Inhibition of Acinetobacter baumannii PBP1b transglycosylase activity at 1 uM using NBD-lipid 2 as substrate after 2 hrs by muramidase enzyme coupled HPLC analysis relative to control

| inhibition [1] | MIC95 (Staphylococcus aureus) | SMILES | also measured |
| --- | --- | --- | --- |
| 48% |  | CCCCCCCCCCCCn1cc(CO[C@H](CP(=O)(O)OCCCNCc2ccc3ccccc3c2)C(=O)O)nn1 |  |
|  | > 400 µM | CCCCCCCCCCCCn1cc(CO[C@H](CP(=O)(O)OCCCN(Cc2ccc(-c3ccccc3)cc2)Cc2ccc(-c3ccccc3)cc2)C(=O)OCC)nn1 | inhibition [2]: 99%; IC50 [3]: 87 µM |
|  | 1.4 µM (≈ 0.489 µg/mL) | CC1(C)S[C@@H]2[C@H](NC(=O)[C@H](N)c3ccccc3)C(=O)N2[C@H]1C(=O)O [AMPICILLIN] |  |
| 13% |  | CCCCCCCCCCCCn1cc(CO[C@H](CP(=O)(O)OCCCNCc2ccc(-c3ccccc3)cc2)C(=O)O)nn1 |  |
| < 5% |  | CCCCCCCCCCCCn1cc(CO[C@H](CP(=O)(O)OCCCN(Cc2ccc(-c3ccccc3)cc2)C(=O)OCC(Cl)(Cl)Cl)C(=O)O)nn1 |  |
|  | 6.3 µM (≈ 4.31 µg/mL) | CCCCCCCCCCCCn1cc(CO[C@H](CP(=O)(O)OCCCN(C)Cc2ccc(-c3ccccc3)cc2)C(=O)OCC)nn1 | inhibition [2]: 99%; IC50 [3]: 153 µM |
| 33% |  | CCCCCCCCCCCCn1cc(CO[C@H](CP(=O)(O)OCCCN(Cc2ccc(-c3ccccc3)cc2)C(=O)OC(C)(C)C)C(=O)OCC)nn1 |  |
| 70% |  | CCCCCCCCCCCCn1cc(CO[C@H](CP(=O)(O)OCCCN(Cc2ccc(-c3ccccc3)cc2)C(=O)OCC(Cl)(Cl)Cl)C(=O)OCC)nn1 |  |
|  |  | C=C(C/C=C(\C)CCC=C(C)C)CCC(C)(C)/C=C/CC/C(C)=C\CO[C@H](COP(=O)(O)O[C@H]1O[C@H](C(N)=O)[C@@](C)(O)[C@H](OC(N)=O)[C@H]1O[C@@H]1O[C@H](CO[C@@H]2O[C@H](CO)[C@@H](O)[C@H](O)[C@H]2O)[C@@H](O[C@@H]2O[C@H](C)[C@@H](O[C@@H]3O[C@H](C(=O)NC4=C(O)CCC4=O)[C@H](O)[C@H](O)[C@H]3O)[C@H](O)[C@H]2NC(C)=O)[C@H](O)[C@H]1NC(C)=O)C(=O)O | inhibition [4]: 100% |
| 55% | 6.3 µM (≈ 4.06 µg/mL) | CCCCCCCCCCCCn1cc(CO[C@H](CP(=O)(O)OCCCNCc2ccc3ccccc3c2)C(=O)OCC)nn1 |  |
| 90% | 6.3 µM (≈ 4.23 µg/mL) | CCCCCCCCCCCCn1cc(CO[C@H](CP(=O)(O)OCCCNCc2ccc(-c3ccccc3)cc2)C(=O)OCC)nn1 | inhibition [2]: 34%; IC50 [3]: 232 µM |
|  | 6.3 µM (≈ 4.14 µg/mL) | CCCCCCCCCCCCn1cc(CO[C@H](CP(=O)(O)OCCNCc2ccc(-c3ccccc3)cc2)C(=O)OCC)nn1 | inhibition [2]: 99%; IC50 [3]: 157 µM |
| < 5% |  | CCCCCCCCCCCCn1cc(CO[C@H](CP(=O)(O)OCCCNC(=O)c2ccc(-c3ccccc3)cc2)C(=O)OCC)nn1 |  |
| < 5% |  | CCCCCCCCCCCCn1cc(CO[C@H](CP(=O)(O)OCCCNC(=O)c2ccc(-c3ccccc3)cc2)C(=O)O)nn1 |  |
